Measured values: US5593982A, “Cyclopentanperhydrophenanthren-17β-(3-furyl)-3-derivatives and pharmaceutical compositions comprising same for the treatment of cardiovascular disorders” (Sigma-Tau Industrie Farmaceutiche Riunite S.p.A., priority 1992, dated 1997)
Like-named read-outs stand apart in the source and are kept apart here.

Experiments:
[1] = target: T1, Na^+,K^+ -ATPase receptor (Canis lupus familiaris, UniProt P50997); assay: displacement of the specific 3H-ouabain binding from the purified Na+,K+-ATPase receptor
T1 construct: from tissue; mammalian kidney outer medulla by the cited Jorgensen 1974 method (own knowledge)
From the text: (§1) To test the affinity for the receptor site of the Na^+,K^+ -ATPase and the agonist or antagonist activity on the enzyme, the following tests were used: a) displacement of the specific ^3 H-ouabain binding from the Na^+,K^+ -ATPase receptor purified according to Jorghensen (Jorghensen P., BBA, 1974, 356, 36) and Erdmann (Erdmann E. et al., Arzneim. Forsh., 1984, 34, 1314); b) inhibition of the activity of the purified Na^+,K^+ -ATPase measured as % of hydrolysis of ^32 P-ATP in presence and in absence of the tested compound (Mall F. et al., Biochem. Pharmacol., 1984, 33, 47).

[2] = target: T2, purified Na^+,K^+ -ATPase (Canis lupus familiaris, UniProt P50997); assay: inhibition of the activity of the purified Na+,K+-ATPase measured as % of hydrolysis of 32P-ATP; type: biochemical
T2 construct: from tissue; mammalian kidney outer medulla by the cited Jorgensen 1974 method (own knowledge)
From the text: as §1

hypertensive MHS rats = assay: systolic blood pressure and heart rate in hypertensive MHS rats (indirect tail-cuff method); type: in vivo, rat (MHS); conditions: 20 mg/Kg/os daily for ten days in METHOCEL 0.5% w/v, 7 rats; for SBP (systolic blood pressure): controls 171 ± 4.5; for HR (heart rate): controls 384 ± 11.0
Protocol: The ability of these compounds to lower blood pressure in adult hypertensive MHS rats was tested by the following method: systolic blood pressure (SBP) and heart rate (HR) were measured by an indirect tail-cuff method in three-month old hypertensive MHS rats before beginning treatment (basal values). The rats were then subdivided in two groups of 7 animals each, one receiving the compound and the other, the control group, receiving only the vehicle. The compound, suspended in METHOCEL® 0.5% (w/v), for ten days, was administered daily by mouth. SBP and HR were measured daily 6 and 24 hours after the treatment. When ten-day treatment washout had been under way for at least two days, whether the treatment maintains SBP low or re-establish the basal values was verified. The affinity and the inhibitory activity of some ethers and of the reference compound (II-a) in the two tests are shown in the following table: […]

[3] = displacement of specific 3H-ouabain binding, purified Na+,K+-ATPase, read-out: Binding 3H-Ouab. Displacement log IC50 (converted)
[4] = hydrolysis of 32P-ATP, purified Na+,K+-ATPase, read-out: Inhibitory Activity log IC50 (converted)

SMILES | IC50 [1] | IC50 [2] | SBP (systolic blood pressure) (hypertensive MHS rats) | HR (heart rate) (hypertensive MHS rats) | IC50 [1, 3] | IC50 [2, 4]
C[C@]12CC[C@H](OCCCN3CCCC3)C[C@H]1CC[C@@H]1[C@@H]2CC[C@]2(C)[C@@H](c3ccoc3)CC[C@]12O [Comp. I-ae] | 126 nM | 794 nM | 154 ± 6.3 mm Hg | 395 ± 8.7 beats/min. | – | –
C[C@]12CC[C@H](O)C[C@H]1CC[C@@H]1[C@@H]2CC[C@]2(C)[C@@H](c3ccoc3)CC[C@]12O [Comp. II-a, 17β-(3-furyl)-5β-androstane-3β,14β-diol, reference compound] | – | – | 175 ± 4.1 mm Hg | 382 ± 9.0 beats/min. | – | –
C[C@]12CC[C@H](SCCN3CCCC3)C[C@H]1CC[C@@H]1[C@@H]2CC[C@]2(C)[C@@H](c3ccoc3)CC[C@]12O [Comp. I-bw, 3β-(2-(1-Pyrrolidinyl)ethylthio)-17β-(3-furyl)-5β-androstan-14β-ol] | – | – | 157 ± 4.3 mm Hg | 392 ± 10.0 beats/min. | 794 nM | 3980 nM
C[C@]12CC[C@H](SCCN)C[C@H]1CC[C@@H]1[C@@H]2CC[C@]2(C)[C@@H](c3ccoc3)CC[C@]12O [Comp. I-bv, 3β-(2-Aminoethylthio)-17β-(3-furyl)-5β-androstan-14β-oloxalate] | – | 2000 nM | 161 ± 4.2 mm Hg | 384 ± 6.7 beats/min. | 501 nM | –
C[C@]12CC[C@H](OCCCN)C[C@H]1CC[C@@H]1[C@@H]2CC[C@]2(C)[C@@H](c3ccoc3)CC[C@]12O [Comp. I-ab, 3β-(3-Aminopropoxy)-17β-(3-furyl)-5β-androstan-14β-ol] | 126 nM | – | 157 ± 4.9 mm Hg | 371 ± 10.0 beats/min. | – | 1260 nM
C[C@]12CC[C@H](OCCNC(=N)N)C[C@H]1CC[C@@H]1[C@@H]2CC[C@]2(C)[C@@H](c3ccoc3)CC[C@]12O [Comp. I-al, 3β-(2-Guanidinoethoxy)-17β-(3-furyl)-5β-androstan-14β-ol nitrate] | 126 nM | 1580 nM | 159 ± 5.0 mm Hg | 393 ± 9.0 beats/min. | – | –
C[C@]12CC[C@H](OCCSCCN3CCCC3)C[C@H]1CC[C@@H]1[C@@H]2CC[C@]2(C)[C@@H](c3ccoc3)CC[C@]12O [Comp. I-ai, 3β-(2-(2-(1-Pyrrolidinyl)ethylthio)ethoxy)-17β-(3-furyl)-5β-androstan-14β-ol] | 200 nM | 631 nM | 160 ± 4.7 mm Hg | 390 ± 8.9 beats/min. | – | –
C[C@]12CC[C@H](SCCOCCN3CCCC3)C[C@H]1CC[C@@H]1[C@@H]2CC[C@]2(C)[C@@H](c3ccoc3)CC[C@]12O [Comp. I-by, 3β-(2-(2-(1-Pyrrolidinyl)ethoxy)ethylthio)-17β-(3-furyl)-5β-androstan-14β-ol] | 158 nM | 1000 nM | 154 ± 6.3 mm Hg | 395 ± 8.7 beats/min. | – | –
C[C@]12CC[C@H](OCCNCCN3CCCC3)C[C@H]1CC[C@@H]1[C@@H]2CC[C@]2(C)[C@@H](c3ccoc3)CC[C@]12O [Comp. I-ag, 3β-(2-(2-(1-Pyrrolidinyl)ethylamino)ethoxy)-17β-(3-furyl)-5β-androstan-14β-ol] | 158 nM | 1580 nM | 162 ± 5.0 mm Hg | 377 ± 9.0 beats/min. | – | –
